Test results as given in US20040266795A1 (priority 2003, published 2004).
Where two headings read alike, the source gives them in different places.

Columns and labels:
[1] = Stability studies of the prepared FMC (storage, HPLC); type: physicochemical
Protocol: The purity of famciclovir was analyzed by HPLC under the following conditions: […]

[2] = cited from earlier work
[3] = below 85% relative humidity; cited from earlier work
[4] = 1 month, 25° C., 75% relative humidity
[5] = 1 month, 40° C., 75% relative humidity
[6] = 1 month, 55° C., 75% relative humidity
[7] = 2 month, 25° C., 75% relative humidity
[8] = 2 month, 40° C., 75% relative humidity
[9] = 2 month, 55° C., 75% relative humidity
[10] = 3 months, 25° C., 75% relative humidity
[11] = 3 months, 40° C., 75% relative humidity
[12] = 3 months, 55° C., 75% relative humidity
[13] = 5 months, 25° C., 75% relative humidity
[14] = 6 months, 25° C., 75% relative humidity
[15] = 6 months, 40° C., 75% relative humidity
[16] = 6 months, 55° C., 75% relative humidity

In the case of “2-[2-(2-amino-9H-purin-9-yl)ethyl]-1,3-propane diacetate [famciclovir]”, the “Any, %” value [1, 4] is reported as 0.00%, the “Total, %” value [1, 4] is reported as 0.00% and the “Any, %” value [1, 5] is reported as 0.00%. For the same substance, the “Total, %” value [1, 5] was 0.00%, the “Any, %” value [1, 6] was 0.00% and the “Total, %” value [1, 6] was 0.00%. The “Any, %” value [1, 7] was 0.00%, the “Total, %” value [1, 7] was 0.00% and the “Any, %” value [1, 8] was 0.06%. The Appear. [1, 8] was “White”, the “MH-FMC RRT 0.51 (%)” value [1, 8] was 0.06% and the “RRT 0.80 (%)” value [1, 8] was <0.01%. The “RRT 0.87 (%)” value [1, 8] was <0.01%, the “RRT 0.89 (%)” value [1, 8] was 0.01% and the “RRT 1.10 (%)” value [1, 8] was <0.01%. For the same substance, the “RRT 1.27 (%)” value [1, 8] was <0.01%, the “RRT 1.35 (%)” value [1, 8] was <0.01% and the “RRT 1.74 (%)” value [1, 8] was <0.01%. For the same substance, the “Total, %” value [1, 8] was 0.07%, the “Any, %” value [1, 9] was 0.07% and the Appear. [1, 9] was “White”. The “MH-FMC RRT 0.51 (%)” value [1, 9] was 0.07%, the “RRT 0.80 (%)” value [1, 9] was <0.01% and the “RRT 0.87 (%)” value [1, 9] was <0.01%. The “RRT 0.89 (%)” value [1, 9] was 0.01%, the “RRT 1.10 (%)” value [1, 9] was <0.01% and the “RRT 1.27 (%)” value [1, 9] was <0.01%. For the same substance, the “RRT 1.35 (%)” value [1, 9] was <0.01%, the “RRT 1.74 (%)” value [1, 9] was <0.01% and the “Total, %” value [1, 9] was 0.08%. For the same substance, the “Any, %” value [1, 10] was 0.00%, the “Total, %” value [1, 10] was 0.00% and the “Any, %” value [1, 11] was 0.06%. The Appear. [1, 11] was “White”, the “MH-FMC RRT 0.51 (%)” value [1, 11] was 0.06% and the “RRT 0.80 (%)” value [1, 11] was <0.01%. For the same substance, the “RRT 0.87 (%)” value [1, 11] was <0.01%, the “RRT 0.89 (%)” value [1, 11] was 0.01% and the “RRT 1.10 (%)” value [1, 11] was <0.01%. For the same substance, the “RRT 1.27 (%)” value [1, 11] was <0.01%, the “RRT 1.35 (%)” value [1, 11] was <0.01% and the “RRT 1.74 (%)” value [1, 11] was <0.01%. The “Total, %” value [1, 11] was 0.07%, the “Any, %” value [1, 12] was 0.06% and the Appear. [1, 12] was “White”. For the same substance, the “MH-FMC RRT 0.51 (%)” value [1, 12] was 0.06%, the “RRT 0.80 (%)” value [1, 12] was <0.01% and the “RRT 0.87 (%)” value [1, 12] was <0.01%. The “RRT 0.89 (%)” value [1, 12] was 0.01%, the “RRT 1.10 (%)” value [1, 12] was <0.01% and the “RRT 1.27 (%)” value [1, 12] was <0.01%. The “RRT 1.35 (%)” value [1, 12] was <0.01%, the “RRT 1.74 (%)” value [1, 12] was <0.01% and the “Total, %” value [1, 12] was 0.07%. For the same substance, the “Any, %” value [1, 13] was 0.06%, the Appear. [1, 13] was “White” and the “MH-FMC RRT 0.51 (%)” value [1, 13] was 0.06%. The “RRT 0.80 (%)” value [1, 13] was 0.01%, the “RRT 0.87 (%)” value [1, 13] was 0.02% and the “RRT 0.89 (%)” value [1, 13] was 0.01%. For the same substance, the “RRT 1.10 (%)” value [1, 13] was 0.01%, the “RRT 1.27 (%)” value [1, 13] was 0.01% and the “RRT 1.35 (%)” value [1, 13] was 0.01%. The “RRT 1.74 (%)” value [1, 13] was 0.01%, the “Total, %” value [1, 13] was 0.14% and the “Any, %” value [1, 14] was 0.06%. For the same substance, the “MH-FMC RRT 0.51 (%)” value [1, 14] was 0.06%, the “RRT 0.80 (%)” value [1, 14] was 0.01% and the “RRT 0.87 (%)” value [1, 14] was 0.01%. The “RRT 1.27 (%)” value [1, 14] was 0.01%, the “Total, %” value [1, 14] was 0.09% and the “Any, %” value [1, 15] was 0.06%. The “MH-FMC RRT 0.51 (%)” value [1, 15] was 0.06%, the “RRT 0.80 (%)” value [1, 15] was 0.01% and the “RRT 0.87 (%)” value [1, 15] was 0.01%. For the same substance, the “RRT 1.27 (%)” value [1, 15] was 0.01%, the “Total, %” value [1, 15] was 0.09% and the “Any, %” value [1, 16] was 0.06%. For the same substance, the “MH-FMC RRT 0.51 (%)” value [1, 16] was 0.06%, the “RRT 0.80 (%)” value [1, 16] was 0.01% and the “RRT 0.87 (%)” value [1, 16] was 0.01%. The “RRT 1.27 (%)” value [1, 16] was 0.01%, the “Total, %” value [1, 16] was 0.09% and the “monohydroxy impurity content upon storage” value ([1]; at least 6 months at 25° C., 40° C. or 55° C. and 75% relative humidity) was “does not increase”. The “Any, %” value ([1]; start) was 0.00%, the “Total, %” value ([1]; start) was 0.00% and the “partition coefficient P” value ([2]; octanol/phosphate buffer (pH 7.4)) was 2.08. For the same substance, the “partition coefficient P” value ([2]; octanol/water (pH 4.8)) was 1.09 and the hygroscopicity [3] was “not hydroscopic”.
